Experimental data from patent US20220184084A1, “COMPOSITIONS AND METHODS FOR TREATING CUSHING'S DISEASE” (The Regents of the University of California, priority 2019, published 2022).
Read-outs that look alike come from different tables or passages of the source. One block for each compound: values may come before it. Starred links: 1 amine or outer side, 2 acyl side, 3 side chain; linkers in the order of their positions; H or OH if unused. Non-standard residues stand in square brackets, D forms with d. Residues, ends and D or L forms follow the SMILES beside them. Groups on a side chain read outwards from the residue. *: point of attachment. Ethylenediamine = C(CN[*:2])N[*:1]; Hyp = O=C(O)[C@@H]1C[C@@H](O)CN1; Phg = N[C@H](C(=O)O)c1ccccc1; CO = O=C([*:1])[*:2]; Bn = c1ccc(C*)cc1

Tests used:
AtT20 cells [1] = test: Relative proliferation rate, panobinostat and buparlisib alone and combined; type: cell-based, murine; conditions: Veh 1.0±0.06
Procedure: FIG. 6G depicts the results of a study wherein AtT20 cells were treated with panobinostat and burparlisib simultaneously to detect the effects on cell proliferation.

AtT20 cells [2] = test: ACTH secretion in AtT20 cells (ELISA); type: cell-based, murine; conditions: for EC50: Mus musculus, read-out: EC50 for ACTH secretion inhibition
Procedure: The EC50 for ACTH secretion inhibition were calculated using a sigmoidal dose-response curve (GraphPad Prism).
FIG. 6F depicts the results of a study wherein AtT20 cells were treated with panobinostat and burparlisib simultaneously to detect the effects on ACTH secretion.

AtT20 cells [3] = test: AtT20 cell proliferation IC50 (CellTiter-Glo); type: cell-based, murine; conditions: read-out: IC50 for proliferation inhibition
Procedure: The IC50 values were calculated using sigmoidal dose-response curve (GraphPad Prism).

[4] = test system: AtT20 cells stably transfected with POMC promoter driven luciferase; test: POMC promoter-driven luciferase assay (POMC-Luc); type: cell-based, murine; conditions: 1 day
Text: Using a POMC promoter-driven luciferase assay, the direct actions of the aforementioned compounds on POMC transcription was examined.

[5] = background statement; cited from earlier work
AtT20 cells [6] = test: Nuclei staining (Hoechst 33342 dye), screen of kinase inhibitor library; type: cell-based, murine; conditions: Mus musculus; for inhibition at 1 µM / inhibition at 10 µM: read-out: Nuclei Inhibition (%)
Procedure: This plate was incubated in a Cytomat 6000 sealed with gas permeable polyurethane film (USA Scientific) and imaged on ImageXpress^XL (Molecular Devices). All these instruments are integrated on a Beckman Coulter SAMI automation platform which tracks timing to ensure accuracy and consistency of all steps.

AtT20 cells [7] = test: ACTH AlphaLISA assay, screen of kinase inhibitor library; type: cell-based, murine; conditions: Mus musculus, read-out: ACTH Inhibition (%)
Procedure: The latter mouse antibody is then trapped by an anti-mouse IgG (Fc specific) conjugated to acceptor beads, bringing the donor and acceptor beads into close proximity. […] Conversely if the cell SN ACTH is reduced following treatment with an ACTH inhibitor, the Alpha signal is restored.
One column (#1) with vehicle treatment only, and two cell-free columns (#23 & 24) were included as AlphaLISA signal negative and positive controls respectively to monitor assay performance.
Thereafter, 2 μL of cell culture supernatant was transferred from the black culture plate into a white low volume assay plate (Corning) using Vprep (Agilent) equipped with Velocity 11 Biocel 1800 (Agilent). 1 μL of biotinylated ACTH peptide solution (AnaSpec) and 1 μL of anti-ACTH antibody solution (EMD) is added sequentially into the low volume assay plate using AquaMax DW4 (Molecular Devices) Following a 1 h incubation, 1 μL donor and acceptor beads (PerkinElmer) were added to the assay plate using ELx405 (BioTek). Optical seals (Sigma) are used to minimize assay evaporation during the subsequent 2 h incubation. The assay plate is then transferred by a Thermo Spinnaker robotic arm to Envision (PerkinElmer) for AlphaLISA signal detection.

[8] = test system: murine corticotroph tumor Caspase-3/7; test: Caspase-Glo3/7 assay; type: cell-based; conditions: 24 hours
[9] = test system: human corticotroph tumor primary cultures; test: Proliferation of human corticotroph tumor primary cultures (CellTiter-Glo); type: cell-based; conditions: two human primary corticotroph tumor cultures, 3 days, read-out: IC50 anti-proliferative effect
AtT20 cells [10] = test: POMC mRNA expression in AtT20 cells by real time PCR; type: cell-based, murine; conditions: 20 nM to 1.25 nM, 24 h, RT-PCR
Procedure: The POMC mRNA expression […] values were determined by real time PCR.
FIG. 6I depicts the results of a study wherein AtT20 cells were treated with panobinostat and burparlisib simultaneously to detect the effects on POMC mRNA expression.

AtT20 cells [11] = test: Expression of POMC regulators (Nurr1, Nur77, LXRα, GR) after treatment; type: cell-based, murine
Text: Accordingly, the expressions of several nuclear receptors, known as POMC positive and negative regulators, including Nurr1 (NR4A2), Nur77 (NR4A1), LXRα (NR1H3), and GR (NR3C1), were examined.

AtT20 cells [12] = test: c-Myc and cell cycle inhibitor mRNA by real time PCR; type: cell-based; conditions: murine corticotroph tumor cells, 5 nM, 24 h
AtT20 cells [13] = test: Histone acetylation (H3K9) and AKT pathway activation in AtT20 cells; type: cell-based, murine; conditions: 3 days
Nurr1 = Nurr1 interaction with HDACs and Nurr1 phosphorylation by immunoprecipitation; type: cell-based
Text: FIG. 7F depicts the interactions between Nurr1, HDACs, and Nurr1 phosphorylation, as detected by immunoprecipitation.

[14] = test system: AtT20 cells inoculated into athymic nude mice; test: Xenograft model of Cushing disease; type: in vivo, athymic nude mice (Nu/J strain); conditions: 300 mg/kg oral gavage daily, 18 days
Procedure: Animal bodyweight was recorded daily. […] Tumor size was recorded daily. […] Tumor size was measured post euthanizer. […] Tumor weight was measured post euthanizer. […] Blood samples were collected by cardiac puncture and plasma ACTH levels were measured by ELISA. […] Blood samples were collected by cardiac puncture and plasma corticosterone levels were measured by ELISA. […] AtT20 cells (2×10^5/animal) were injected into the hind flank region of athymic nude mice (Nu/J strain from Jackson lab). […] During 18-days of CUDC-907-treatment, animal bodyweight (FIG. 4A) and tumor sizes (FIG. 4B) were measured daily. Upon experiment completion, the animals were euthanized and tumors were harvested, and weighed. Blood samples were collected by cardiac puncture.

[15] = test system: human corticotroph tumor primary cultures; test: ACTH secretion in human corticotroph tumor primary culture (ELISA); type: cell-based; conditions: Vehicle 3.7±0.2
[16] = Mus musculus, AtT20, 72 h, 3 days
[17] = Mus musculus, AtT20, 72 h, 3 day-treatment
[18] = 72 h, 1 μM, AtT20 cells, 3 days
[19] = 72 h, 10 μM, AtT20 cells, 3 days
[20] = 72 h, 100 nM, AtT20 cells, 3 days

Compound: Nc1cc(C(F)(F)F)c(-c2cc(N3CCOCC3)nc(N3CCOCC3)n2)cn1 [buparlisib]
- Relative Proliferation Rate (AtT20 cells [1]; buparlisib 62.5 nM alone): 1.0±0.06
- effect on ACTH secretion (AtT20 cells [2]; buparlisib alone): did not inhibit ACTH secretion
- IC50 (AtT20 cells [3]; [16]): 500 nM
- effect on POMC transcription [4]: increased POMC transcription at higher doses

Compound: NCCCC[C@@H]1NC(=O)[C@@H](Cc2c[nH]c3ccccc23)NC(=O)[C@H](c2ccccc2)NC(=O)[C@@H]2C[C@@H](OC(=O)NCCN)CN2C(=O)[C@H](Cc2ccccc2)NC(=O)[C@H](Cc2ccc(OCc3ccccc3)cc2)NC1=O [pasireotide] (cyclo([Hyp]([CO-Ethylenediamine])[Phg][dW]KY(Bn)F))
- patients in whom the drug causes diabetes [5]: approximately 50%

- EC50 (AtT20 cells [2]): 4 nM
Compound: Cc1[nH]c2ccccc2c1CCNCc1ccc(/C=C/C(=O)NO)cc1 [panobinostat]
- Relative Proliferation Rate (AtT20 cells [1]; panobinostat 5 nM alone): 1.0±0.01
- Relative Proliferation Rate (AtT20 cells [1]; panobinostat 10 nM alone): 0.8±0.005
- ACTH secretion (AtT20 cells [2]; panobinostat 5 nM alone, Veh 39.6±2): 28.7 ± 0.1 ng/mL
- ACTH secretion (AtT20 cells [2]; panobinostat 10 nM alone, Veh 39.6±2): 13.6 ± 1 ng/mL
- inhibition of ACTH secretion (AtT20 cells [2]; panobinostat 5 and 10 nM alone): up to 66%
- IC50 (AtT20 cells [3]; [17]): 20 nM

Compound: COc1ccc(-c2ccc3ncc4c(c3c2)n(-c2ccc(N3CCNCC3)c(C(F)(F)F)c2)c(=O)n4C)cn1 [BGT226 (NVP-BGT226)]
- inhibition at 0.1 µM (AtT20 cells [6]; 72 h, AtT20 cells, 3 days): 94.3%
- inhibition at 1 µM (AtT20 cells [6]; [18]): 99%
- inhibition at 10 µM (AtT20 cells [6]; [19]): 95.4%
- inhibition at 0.1 µM (AtT20 cells [7]; [20]): 57.5%
- inhibition at 1 µM (AtT20 cells [7]; [18]): 86.3%
- inhibition at 10 µM (AtT20 cells [7]; [19]): 88.2%

Compound: CC[C@@H]1C(=O)N(C)c2cnc(Nc3ccc(C(=O)NC4CCN(C)CC4)cc3OC)nc2N1C1CCCC1 [BI 2536]
- inhibition at 1 µM (AtT20 cells [6]; AtT20, 72 h): 92.3%
- inhibition at 10 µM (AtT20 cells [6]; AtT20, 72 h): 94%
- inhibition at 0.1 µM (AtT20 cells [7]; AtT20, 72 h): 54.9%
- inhibition at 1 µM (AtT20 cells [7]; AtT20, 72 h): 82%
- inhibition at 10 µM (AtT20 cells [7]; AtT20, 72 h): 77.7%

Compound: CCc1cnn2c(NCc3ccc[n+]([O-])c3)cc(N3CCCC[C@H]3CCO)nc12 [Dinaciclib (SCH727965)]
- inhibition at 0.1 µM (AtT20 cells [6]; 72 h, AtT20 cells, 3 days): 92%
- inhibition at 1 µM (AtT20 cells [6]; [18]): 98.3%
- inhibition at 10 µM (AtT20 cells [6]; [19]): 98%
- inhibition at 0.1 µM (AtT20 cells [7]; [20]): 58.1%
- inhibition at 1 µM (AtT20 cells [7]; [18]): 77.3%
- inhibition at 10 µM (AtT20 cells [7]; [19]): 69.2%

Compound: Cc1nc(Nc2n[nH]c3c2CN(C(=O)N[C@H](CN(C)C)c2ccccc2)C3(C)C)c2sccc2n1 [PF-3758309]
- inhibition at 0.1 µM (AtT20 cells [6]; 72 h, AtT20 cells, 3 days): 91.5%
- inhibition at 1 µM (AtT20 cells [6]; [18]): 95.6%
- inhibition at 10 µM (AtT20 cells [6]; [19]): 95.2%
- inhibition at 0.1 µM (AtT20 cells [7]; [20]): 70.4%
- inhibition at 1 µM (AtT20 cells [7]; [18]): 70.2%
- inhibition at 10 µM (AtT20 cells [7]; [19]): 77.5%

Compound: CS(=O)(=O)N1CCN(Cc2cc3nc(-c4cccc5[nH]ncc45)nc(N4CCOCC4)c3s2)CC1 [pictilisib]
- IC50 (AtT20 cells [3]; [16]): 800 nM
- effect on POMC transcription [4]: increased POMC transcription at higher doses

- activity of caspase-3 and -7 [8]: increasing the activity
- EC50 (AtT20 cells [2]): 1 nM
- IC50 ([9]; Homo sapiens, 72 h): 3 nM
- IC50 [9]: 5 nM
- EC50 ([4]; Mus musculus, 24 h, read-out: EC50 for POMC transcription inhibition): 0.5 nM
Compound: COc1ccc(-c2nc(N3CCOCC3)c3sc(CN(C)c4ncc(C(=O)NO)cn4)cc3n2)cn1 [CUDC-907]
- inhibition at 0.1 µM (AtT20 cells [6]; 72 h, AtT20 cells, 3 days): 90.1%
- inhibition at 1 µM (AtT20 cells [6]; [18]): 99.2%
- inhibition at 10 µM (AtT20 cells [6]; [19]): 99.3%
- reduction of ACTH secretion (AtT20 cells [2]; 1.25 nM): 59%
- ACTH secretion (AtT20 cells [2]; 1.25 nM, 24 h, Vehicle 30±19): 12 ± 2.4 ng/mL
- ACTH secretion (AtT20 cells [2]; 2.5 nM, 24 h, Vehicle 30±19): 12 ± 5.7 ng/mL
- ACTH secretion (AtT20 cells [2]; concentration not given, 24 h, Vehicle 30±19): 15 ± 2.2 ng/mL
- effect on POMC mRNA expression (AtT20 cells [10]): potent reduction in POMC mRNA expression
- Nurr1 expression (AtT20 cells [11]; 1.25 nM, 24 h): reduction in Nurr1 expression
- LXRα expression (AtT20 cells [11]; 5 and 10 nM, 24 h): reductions
- Nur77 expression (AtT20 cells [11]; 5 and 10 nM, 24 h): reductions
- Nurr1 protein expression (AtT20 cells [11]; 6 h-treatment): dramatic inhibition
- GR expression (AtT20 cells [11]; 24 h): minor effects
- Nurr1 mRNA expression (AtT20 cells [11]; real time PCR): inhibition of Nurr1 mRNA expression
- c-Myc mRNA expression (AtT20 cells [12]): increased
- IC50 (AtT20 cells [3]; 3 day-treatment): 5.1 nM
- IC50 (AtT20 cells [3]; [17]): 5 nM
- inhibition at 0.1 µM (AtT20 cells [7]; [20]): 84.7%
- inhibition at 1 µM (AtT20 cells [7]; [18]): 80.1%
- inhibition at 10 µM (AtT20 cells [7]; [19]): 80%
- AKT activation and downstream target 4E-BPI (AtT20 cells [13]): blocked
- histone acetylation Ac-H3-K9 (AtT20 cells [13]): elevated histone acetylation
- Nurr1 interaction with HDAC-1, 2, 3, but not HDAC10 (Nurr1): unaffected
- Nurr1 serine/threonine phosphorylation levels (Nurr1): dramatically inhibited
- reduction of plasma ACTH level ([14]; vs controls): 77%
- reduction of plasma corticosterone level ([14]; vs controls): 85%
- reduction in tumor size ([14]; vs vehicle): ~35%
- reduction in tumor weight ([14]; vs vehicle): 44%
- tumor weight ([14]; Control 0.098±0.02): 0.04±0.006 gram
- tumor volume ([14]; Control 0.17±0.05): 0.065±0.02 cm^3
- Plasma corticosterone ([14]; Control 180±87): 27 ± 4.66 ng/mL
- Plasma ACTH ([14]; Control 206.1±27.2): 47.4 ± 7.3 pg/mL
- ACTH secretion [15]: 1.9 ± 0.001 ng/mL
